The results in this text go back to patent publication US6429288B1, “Peptides containing an arginine mimetic for the treatment of bone metabolic disorders, their production, and drugs containing these compounds” (Roche Diagnostics GmbH, priority 1997, dated 2002).

This experiment relates to primary cultures of osteoblasts from fetal rat calvarias. Description: in vitro DNA-synthesis assay. In kind it is cell-based. The protocol: Compounds of general formula (I) were tested in an in vitro DNA-synthesis assay. The cells used were primary cultures of osteoblasts from fetal rat calvarias. The experiments were performed in an analogous manner as published in Pfeilschifter et al., Endocrinology 126, 703 (1990).

Ada-Aba-W: the “Biological activity in % compared to control (100%)” value (“Biological activity in %” for short) is, setting by setting: (0.001 μg/ml) 173%; (0.01 μg/ml) 184%; (0.1 μg/ml) 228%; (1.0 μg/ml) 223%; (10 μg/ml) 261%.
As for Ada-Ava-W, the “Biological activity in %” value (0.001 μg/ml) worked out at 116%; the “Biological activity in %” value (0.01 μg/ml) came out at 152%; the “Biological activity in %” value (0.1 μg/ml) was 182%; the “Biological activity in %” value (1.0 μg/ml) is reported as 183%; the “Biological activity in %” value (10 μg/ml) is on record as 229%.
As for Ada-SAW, the “Biological activity in %” value is on record as 122% (0.001 μg/ml); 148% (0.01 μg/ml); 199% (0.1 μg/ml); 162% (1.0 μg/ml); 188% (10 μg/ml).
